Measured values from patent US20220281835A1, “PHENOL DERIVATIVES FOR USE AS ANTIMICROBIAL, ANTIBACTERIAL, BACTERICIDE” (SPECIAL PRODUCT'S LINE S.P.A., priority 2019, published 2022).
≈ marks a conversion by molar mass, not a printed value.

Key:
Assay in all cases: MIC/MBC broth-dilution (micromethod), CLSI
Type in all cases: cell-based
[1] = test system: S. Aureus strain 1 (collection) mec a+; details: Staphylococcus aureus; for MBC: kills 99,9% of initial population; for MIC: marked *: MIC value read at 48 hours
Text: (§1) Determination of Minimal Inhibitory Concentration (MIC), Minimal Bactericidal Concentration (MBC), bactericidal curves and killing rate on Gram positive and Gram negative bacteria strains, for the evaluation of the bactericidal activity of compounds of example 1 (n. 1 to 14).
(§2) In details, phenotypic methods based on in vitro MIC and MBC determination have been performed on previously isolated bacterial strains, identified and characterized at the level of their antibiotic susceptibility profile. According to MIC and MBC data, the Killing Rate was calculated as the ratio between MBC and MIC on which basis it is possible to define the compounds tested as bactericides (killing rate=1-4), or bacteriostatic (killing rate >4).
(§3) Preparation of the solution containing molecules: for each molecule to be tested, solutions were made as DMSO Stock, with a concentration of 2.560 mg/ml, used to test 12 dilutions with the following scalar drug concentrations: 512-256-128-64-32-16-8-4-2-1-0.5-0.25 μg/ml. The scalar dilutions were prepared directly on plates by using Mueller Hinton Broth (MHB) as a solvent.
Bacterial suspension preparation: cryostrains preserved at −80° C. were recovered by incubation in growth medium (Brain Heart Infusion Broth, BHI) for 24-48 hours at 37° C. followed by passages in agar growth medium (Columbia Blood Agar). Colonies with less than 30 hours are suspended in MHB with the purpose to prepare a bacterial suspension with a turbidity of 0.5 MF, containing approximately 1.5×10^8 cfu/ml. This injection is additionally diluted in MHB until reaching a final concentration of 5×10^5 cfu/ml (range 3-7×10^5 cfu/ml). Identical volumes of this bacterial suspension are added on a plate, for each well containing drug scalar dilutions, to obtain a final concentration between 512 a 0.25 μg/ml. The set up of bacterial suspensions as well as the passage on slate has always been performed within 30 minutes, in order not to alter the concentration of the bacterial suspension. Simultaneously, check in broth-microdilution only with solvent (in order to exclude that the effect of growth inhibition might be due to the drug solution solvent), positive growth control in absence of DMSO and drug, and negative purity control only with injection broth are performed. As a consequence the slate is incubated at 37° C. for 24 and 48 hours in aerobes. […] The same observations are valid to evaluate 48 hours MIC. After the incubation, an equal volume of bacterial suspension from each well is plated on agar growth medium and incubated for 24-48 hours at a temperature of 37° C. in aerobes, in order to define the MBC after the incubation.
Bacterial strains: the bactericidal and/or bacteriostatic power of the synthesized compounds can be determined by using standard reference strains such as: • 1. S. Aureus ATCC 25923 res kan, tob, res streptogramine (sga-sgb, efflux), res mupirocina (at low level), res trimetoprim; • 2. S. Aureus strain 1 (collection) mec a+, res kan tob gen, res quinolones, lincosamides, res streptogramine (sga-sgb), mlsb+sa constituent, mlsb constituent, res mupirocine (low level), res trimetoprim; • 3. S. Aureus strain 2 (collection) acquired penicillinase, res kan tob, res streptogramine (sga-sgb, efflux), res mupirocine (low level), res trimetoprim; • 4. Enterococcus faecalis ATCC 51299 (str+gen res at high level, mlsb res, simil van b res); • 5. Enterococcus faecalis strain 1 (collection) (str+kan res at high level str res at high level tetracycline res); • 6. Enterococcus faecalis strain 2 (collection) (kan res at high level); • 7. E. coli of Collection: RESISTANT to ampicilline, amox+ac clav, ampicillinr+sulbactam, cefalexine, cefuroxime, cefuroxime axetil, cefixime, cefpodoxime, cefotaxime, ceftazidime, ceftriaxone, netilmicine, tobramicine, ciprofloxcine, trim/sulfametox, esbl pos, SENSITIVE to meropenem and gentamicine, INTERMEDIATE to amikacine; • 8. 8.

[2] = test system: Enterococcus faecalis strain 2 (collection); details: for MBC: E. FAECALIS strain 2, kills 99,9% of initial population
Text: as §1
as §2, with “Sensitivity tests have been performed in broth-dilution (micromethod) with the purpose to test the possible bacteriostatic and/or bactericidal power in different compounds, in accordance with CLSI guidelines (Clinical and Laboratory Standards Institute). In” for “In”
as §3
(§4) Bacterial suspension preparation: cryostrains preserved at −80° C. were recovered by incubation in growth medium (Brain Heart Infusion Broth, BHI) for 24-48 hours at 37° C. followed by passages in agar growth medium (Columbia Blood Agar). Colonies with less than 30 hours are suspended in MHB with the purpose to prepare a bacterial suspension with a turbidity of 0.5 MF, containing approximately 1.5×10^8 cfu/ml. This injection is additionally diluted in MHB until reaching a final concentration of 5×10^5 cfu/ml (range 3-7×10^5 cfu/ml). Identical volumes of this bacterial suspension are added on a plate, for each well containing drug scalar dilutions, to obtain a final concentration between 512 a 0.25 μg/ml. The set up of bacterial suspensions as well as the passage on slate has always been performed within 30 minutes, in order not to alter the concentration of the bacterial suspension. Simultaneously, check in broth-microdilution only with solvent (in order to exclude that the effect of growth inhibition might be due to the drug solution solvent), positive growth control in absence of DMSO and drug, and negative purity control only with injection broth are performed. As a consequence the slate is incubated at 37° C. for 24 and 48 hours in aerobes. The 24 hours MIC is considered as the minimum drug concentration able to inhibit bacterial growth, which makes it possible to observe the absence of bacterial growth and the absence of turbidity. The same observations are valid to evaluate 48 hours MIC. After the incubation, an equal volume of bacterial suspension from each well is plated on agar growth medium and incubated for 24-48 hours at a temperature of 37° C. in aerobes, in order to define the MBC after the incubation. The MBC is evaluated as the minimum concentration of drug able to kill the 99,9% of the initial bacterial population.
(§5) Bacterial strains: the bactericidal and/or bacteriostatic power of the synthesized compounds can be determined by using standard reference strains such as: • 1. S. Aureus ATCC 25923 res kan, tob, res streptogramine (sga-sgb, efflux), res mupirocina (at low level), res trimetoprim; • 2. S. Aureus strain 1 (collection) mec a+, res kan tob gen, res quinolones, lincosamides, res streptogramine (sga-sgb), mlsb+sa constituent, mlsb constituent, res mupirocine (low level), res trimetoprim; • 3. S. Aureus strain 2 (collection) acquired penicillinase, res kan tob, res streptogramine (sga-sgb, efflux), res mupirocine (low level), res trimetoprim; • 4. Enterococcus faecalis ATCC 51299 (str+gen res at high level, mlsb res, simil van b res); • 5. […]

[3] = test system: Enterococcus faecalis strain 1 (collection); details: for MBC: E. FAECALIS strain 1, kills 99,9% of initial population
Text: as §1
as §2, with “Sensitivity tests have been performed in broth-dilution (micromethod) with the purpose to test the possible bacteriostatic and/or bactericidal power in different compounds, in accordance with CLSI guidelines (Clinical and Laboratory Standards Institute). In” for “In”
as §3, §4, §5

[4] = test system: A. baumannii of collection; details: Acinetobacter baumannii; for MBC: kills 99,9% of initial population
Text: as §1
as §2, with “Sensitivity tests have been performed in broth-dilution (micromethod) with the purpose to test the possible bacteriostatic and/or bactericidal power in different compounds, in accordance with CLSI guidelines (Clinical and Laboratory Standards Institute). In” for “In”
as §3, §4, §5

[5] = test system: Enterococcus faecalis ATCC 51299; details: for MBC: ATCC51299, E. FAECALIS ATCC 51299, kills 99,9% of initial population; for MIC: ATCC51299, E. FAECALIS ATCC 51299, values without asterisk
Text: as §1
as §2, with “Sensitivity tests have been performed in broth-dilution (micromethod) with the purpose to test the possible bacteriostatic and/or bactericidal power in different compounds, in accordance with CLSI guidelines (Clinical and Laboratory Standards Institute). In” for “In”
as §3, §4, §5

S. Aureus ATCC 25923 = details: Staphylococcus aureus; for MBC: ATCC25923, kills 99,9% of initial population
Text: as §1
as §2, with “Sensitivity tests have been performed in broth-dilution (micromethod) with the purpose to test the possible bacteriostatic and/or bactericidal power in different compounds, in accordance with CLSI guidelines (Clinical and Laboratory Standards Institute). In” for “In”
as §3, §4, §5

[6] = test system: P. Aeruginosa of collection; details: Pseudomonas aeruginosa
Text: as §1
as §2, with “Sensitivity tests have been performed in broth-dilution (micromethod) with the purpose to test the possible bacteriostatic and/or bactericidal power in different compounds, in accordance with CLSI guidelines (Clinical and Laboratory Standards Institute). In” for “In”
as §3, §4, §5

[7] = test system: S. Aureus strain 2 (collection); details: Staphylococcus aureus; for MBC: kills 99,9% of initial population; for MIC: values without asterisk
Text: as §1
as §2, with “Sensitivity tests have been performed in broth-dilution (micromethod) with the purpose to test the possible bacteriostatic and/or bactericidal power in different compounds, in accordance with CLSI guidelines (Clinical and Laboratory Standards Institute). In” for “In”
as §3, §4, §5

E. coli of Collection = details: Escherichia coli
Text: as §1
as §2, with “Sensitivity tests have been performed in broth-dilution (micromethod) with the purpose to test the possible bacteriostatic and/or bactericidal power in different compounds, in accordance with CLSI guidelines (Clinical and Laboratory Standards Institute). In” for “In”
as §3, §4, §5

[8] = ATCC25923, values without asterisk
[9] = E. FAECALIS strain 2, marked *: MIC value read at 48 hours
[10] = E. FAECALIS strain 1, marked *: MIC value read at 48 hours

Row | SMILES | MBC [1] [µg/mL] | MIC [1] [µg/mL] | MBC [2] [µg/mL] | MIC ([2]; E. FAECALIS strain 2, values without asterisk) [µg/mL] | MBC [3] [µg/mL] | MIC ([3]; E. FAECALIS strain 1, values without asterisk) [µg/mL] | MIC [4] [µg/mL] | MBC [5] [µg/mL] | MIC [5] [µg/mL] | MBC (S. Aureus ATCC 25923) [µg/mL] | MIC (S. Aureus ATCC 25923; [8]) [µg/mL] | MIC [6] [µg/mL] | MBC [7] [µg/mL] | MIC [7] [µg/mL] | MIC (E. coli of Collection) [µg/mL] | MIC [2, 9] [µg/mL] | MIC [3, 10] [µg/mL] | MBC [4] [µg/mL] | MIC (S. Aureus ATCC 25923; ATCC25923, marked *: MIC value read at 48 hours) [µg/mL]
1 | CC(C)(C)ON=Cc1cc(C=CC(=O)O)ccc1-c1ccc(O)c(C23CC4CC(CC(C4)C2)C3)c1 [Compound 12, 3-[3′-Adamantan-1-yl-4′hydroxy-2-tert-butoxyiminomethyl-biphenyl-4-yl]-acrylic acid] | 4 (≈ 8.45 µM) | 2 to 4 (≈ 4.22 to 8.45 µM) | 4 (≈ 8.45 µM) | 2 (≈ 4.22 µM) | 8 (≈ 16.9 µM) | 2 (≈ 4.22 µM) | 128 (≈ 270 µM) | 8 (≈ 16.9 µM) | 2 (≈ 4.22 µM) | 4 (≈ 8.45 µM) | 2 (≈ 4.22 µM) | 256 (≈ 541 µM) | 2 (≈ 4.22 µM) | 2 (≈ 4.22 µM) | 256 (≈ 541 µM) |  |  |  | 
2 | CON=Cc1cc(/C=C/C(=O)O)ccc1-c1ccc(O)c(C23CC4CC(CC(C4)C2)C3)c1 [Compound 13, 3-[3′-Adamantan-1-yl-4′-hydroxy-2-methoxyimino-methyl-biphenyl-4-yl]-acrylic acid] | 4 (≈ 9.27 µM) | 2 to 4 (≈ 4.63 to 9.27 µM) | 16 (≈ 37.1 µM) |  | 16 (≈ 37.1 µM) |  | 128 (≈ 297 µM) | 32 (≈ 74.2 µM) | 8 (≈ 18.5 µM) | 4 (≈ 9.27 µM) | 2 (≈ 4.63 µM) | 256 (≈ 593 µM) | 32 (≈ 74.2 µM) | 4 (≈ 9.27 µM) | 512 (≈ 1190 µM) | 4 to 8 (≈ 9.27 to 18.5 µM) | 4 to 8 (≈ 9.27 to 18.5 µM) | 512 (≈ 1190 µM) | 
3 | O=C(O)/C=C/c1ccc(-c2ccc(O)c(C34CC5CC(CC(C5)C3)C4)c2)cc1 [adarotene, reference compound] | 16 (≈ 42.7 µM) | 4 to 8 (≈ 10.7 to 21.4 µM) | 16 (≈ 42.7 µM) |  | 32 (≈ 85.5 µM) |  | 128 (≈ 342 µM) | 32 (≈ 85.5 µM) | 2 (≈ 5.34 µM) | 16 (≈ 42.7 µM) |  | 256 (≈ 684 µM) | 8 (≈ 21.4 µM) | 4 (≈ 10.7 µM) | 256 (≈ 684 µM) | 0.5 to 1 (≈ 1.34 to 2.67 µM) | 2 to 4 (≈ 5.34 to 10.7 µM) | 512 (≈ 1370 µM) | 4 to 8 (≈ 10.7 to 21.4 µM)
